Measured values from paper PMC12977544, “Phenotypic high-throughput screening identifies modulators of gut microbial choline metabolism” (mBio, 2026).

What was measured:
[1] = system: germ-free C57BL/6 mice colonized with defined community incl. E. coli MS 200-1; test: Serum TMAO in gnotobiotic mice after inhibitor treatment; assay type: in vivo, Mus musculus C57BL/6
Procedure: One milliliter of culture from each of the six individually grown strains was added to create this mixed culture. In a biosafety cabinet, a 300 mg/mL stock of sterile inhibitor in filter-sterilized DMSO was prepared. After this preparation, a working solution of 3 mg/mL of the inhibitor stock in sterile 1% hydroxyethyl cellulose/1% polysorbate 80 was prepared within 4 days of gavaging the mice and stored at room temperature. A low dose of the inhibitor was also prepared, using a working solution of 0.3 mg/mL of the inhibitor stock in sterile 1% hydroxyethyl cellulose/1% polysorbate 80. The vehicle was prepared in the same way with DMSO without inhibitor. […] Two weeks after colonization, mice were administrated by gavage with 3 mg/kg of the inhibitor or vehicle between 6 and 8 a.m. once a day for three consecutive days. After a 10-day washout period, mice were orally administered 30 mg/kg of the inhibitor once a day (same time as above) for three consecutive days, and blood was collected 24 h after the last gavage. A fecal sample was collected before the first gavage. At sacrifice, tissues collected were blood, cecal contents, a fecal pellet, proximal colon, distal small intestine, liver, and kidney. Mice were anesthetized with isoflurane and underwent cardiac puncture for a terminal blood draw, followed by cervical dislocation. Tissues were snap-frozen in liquid nitrogen. Blood was spun down at 8,000 × g for 8 min at room temperature; the resulting serum layer was removed and snap-frozen. All snap-frozen tissues were stored at -80°C until needed. One volume of plasma and 4 volumes of ice-cold extraction solution (HPLC-grade methanol with 2.5 μM d9-TMAO internal standard) were combined and spun at 21,100 × g for 3 min at 4°C. One volume of the resulting supernatant was then mixed with 1 volume of HPLC-grade water. […] was used for peak quantification, and internal standards were utilized as a comparison to calculate plasma concentrations. Statistical significance was calculated using an unpaired t-test.

[2] = system: conventional C57BL/6 mice; test: Serum TMAO in conventional mice after inhibitor treatment; assay type: in vivo, Mus musculus C57BL/6
Procedure: In a biosafety cabinet, a 300 mg/mL stock of sterile inhibitor in filter-sterilized DMSO was prepared. After this preparation, a working solution of 3 mg/mL of the inhibitor stock in sterile 1% hydroxyethyl cellulose/1% polysorbate 80 was prepared within 4 days of gavaging the mice and stored at room temperature. A low dose of the inhibitor was also prepared, using a working solution of 0.3 mg/mL of the inhibitor stock in sterile 1% hydroxyethyl cellulose/1% polysorbate 80. The vehicle was prepared in the same way with DMSO without inhibitor. […] All mice were administered by gavage with 3 mg/kg or 30 mg/kg of the inhibitor once a day (between 6 and 8 a.m.) for three consecutive days. A fecal sample was collected before the first gavage. At sacrifice, tissues collected were blood, cecal contents, a fecal pellet, proximal colon, distal small intestine, liver, and kidney. Mice were anesthetized with isoflurane and underwent cardiac puncture for a terminal blood draw, followed by cervical dislocation. Tissues were snap-frozen in liquid nitrogen. Blood was spun down at 8,000 × g for 8 min at room temperature; the resulting serum layer was removed and snap-frozen. […] […] was used for peak quantification, and internal standards were utilized as a comparison to calculate plasma concentrations. Statistical significance was calculated using an unpaired t-test.

[3] = system: panel of commensal bacterial strains; test: MIC against panel of nine gut commensal bacteria; conditions: read-out: MICs against gut commensal panel

Which results are given for Cc1ccc(-c2cc(C(=O)NCCCCCN3CCCCCC3)c(C)[nH]2)cc1C [Compound 45]?
Serum TMAO level relative to vehicle treatment ([1]; gnotobiotic mice, 30 mg/kg oral gavage daily for 3 days, 1% choline diet, 24 h after last dose, P = 0.054): about 60 % of vehicle treatment; Decrease of serum TMAO levels ([1]; gnotobiotic mice, 30 mg/kg, n = 8, P = 0.054): ~ 40%; Decrease of TMAO levels compared to vehicle treatment ([1]; in vivo, mouse model not given): approximately 40%; Serum TMAO level relative to vehicle treatment ([2]; 30 mg/kg oral gavage daily for 3 days, 1% choline diet, P = 0.027): about 60 % of vehicle treatment; Decrease of serum TMAO levels ([2]; 30 mg/kg, n = 6, P = 0.027): ~ 40%; MIC [3]: > 200 µM
